{"source": "patent US10952973B2", "about": "“Production method of pregabalin-containing composition and pregabalin-containing composition” (NITTO DENKO CORPORATION, priority 2018, dated 2021)", "origin": "cited, not measured here"}
{"compound": "CCCCCCCCCCCCOS(=O)(=O)O", "note": "[dodecylsulfuric acid]", "values": [{"measurement": "pKa of the acid aqueous solution", "setting": "23° C., 0.35 mol/L aqueous solution", "result": "−3"}]}
{"compound": "CC(C)C[C@H](CN)CC(=O)O", "note": "[pregabalin, Pregabalin]", "values": [{"measurement": "acid dissociation constant (pKa) of the carboxyl group", "setting": "carboxyl group of pregabalin", "result": "about 4.2"}]}
